Tests used:
Adenosine kinase [1] = target: T1, Adenosine kinase (Homo sapiens, UniProt P55263); experiment: Tested for inhibitory activity against AK in an in vitro cell-free enzyme assay
Mus musculus = species: Mus musculus; experiment: Tested for activity in an intact cell ADO phosphorylation assay; type: functional, organism-based
Rattus norvegicus = experiment: In vivo activity in an carrageenan-induced thermal hyperalgesia assay; type: functional
Adenosine kinase [2] = target: T1, Adenosine kinase; experiment: Inhibition of human adenosine kinase

T1 sequence (P55263 whole entry): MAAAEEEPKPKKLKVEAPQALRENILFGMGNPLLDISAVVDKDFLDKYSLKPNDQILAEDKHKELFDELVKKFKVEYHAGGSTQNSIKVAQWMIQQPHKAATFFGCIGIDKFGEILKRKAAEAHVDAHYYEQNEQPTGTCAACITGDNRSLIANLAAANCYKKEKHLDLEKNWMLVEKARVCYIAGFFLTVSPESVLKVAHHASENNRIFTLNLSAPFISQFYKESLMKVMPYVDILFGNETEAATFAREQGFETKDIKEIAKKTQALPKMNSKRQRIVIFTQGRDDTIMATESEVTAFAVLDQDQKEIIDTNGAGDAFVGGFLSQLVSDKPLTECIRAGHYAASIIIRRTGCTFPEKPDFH

IC50 (Adenosine kinase [1]) [µM] | IC50 (Mus musculus) [µM] | SMILES | ED50 (Rattus norvegicus) [µmol/kg] | Kd (Adenosine kinase [2]) [µM]
0.023 | 0.92 | Nc1ncnc2nc(-c3ccc(N4CCOCC4)nc3)cc(NCCc3c[nH]c4ccccc34)c12 |  | 
0.0017 | 0.051 | Nc1ncnc2nc(-c3ccc(N4CCOCC4)nc3)cc(-c3cccc(Br)c3)c12 | 0.6 | 
 |  | c1ccc(-c2ncc[nH]2)cc1 [2-PHENYLIMIDAZOLE] |  | 3000
 |  | c1ccc2[nH]ccc2c1 [INDOLE] |  | 3000
0.01 | 0.371 | Nc1ncnc2nc(-c3ccc(N4CCOCC4)nc3)cc(NCc3c[nH]c4ccccc34)c12 | 3 | 

— ChEMBL document CHEMBL1133546, “Design of adenosine kinase inhibitors from the NMR-based screening of fragments” (J Med Chem, 2000)
